Test results reported in patent US12440484B2, “1,3,4-oxadiazole homophthalimide derivative compounds as histone deacetylase 6 inhibitor, and the pharmaceutical composition comprising the same” (Chong Kun Dang Pharmaceutical Corp., priority 2019, dated 2025).

What was measured:
HDAC6 human recombinant = HDAC6 human recombinant (Homo sapiens (Human), UniProt Q9UBN7); assay: HDAC enzyme activity inhibition (in vitro), HDAC6 assay; format: biochemical; settings: samples at 0.1, 1, 10, 100 and 1000 nM; 37° C. 60 minutes; fluorescence Ex 390, Em 460
HDAC1 = HDAC1 (Homo sapiens (Human), UniProt Q13547); assay: HDAC enzyme activity inhibition (in vitro), HDAC1 Fluorimetric Drug Discovery Assay Kit; format: biochemical; settings: samples at 100, 1000 and 10000 nM; 37° C. 60 minutes; fluorescence Ex 390, Em 460
Chain of HDAC1 (Q13547 whole entry): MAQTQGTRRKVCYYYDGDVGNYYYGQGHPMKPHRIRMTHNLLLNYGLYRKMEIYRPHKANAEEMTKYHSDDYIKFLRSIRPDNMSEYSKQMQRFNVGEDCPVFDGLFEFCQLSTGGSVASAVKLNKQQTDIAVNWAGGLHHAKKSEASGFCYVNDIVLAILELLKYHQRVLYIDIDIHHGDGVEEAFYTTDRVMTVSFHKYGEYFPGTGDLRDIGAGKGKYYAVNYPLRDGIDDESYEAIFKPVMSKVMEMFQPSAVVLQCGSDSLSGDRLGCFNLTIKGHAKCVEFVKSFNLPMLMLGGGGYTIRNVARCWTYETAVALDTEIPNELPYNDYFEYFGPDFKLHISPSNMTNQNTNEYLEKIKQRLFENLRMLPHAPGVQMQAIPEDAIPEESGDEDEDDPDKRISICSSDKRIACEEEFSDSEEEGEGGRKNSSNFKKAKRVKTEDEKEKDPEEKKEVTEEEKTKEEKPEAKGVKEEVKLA

Chain of HDAC6 human recombinant (Q9UBN7 whole entry): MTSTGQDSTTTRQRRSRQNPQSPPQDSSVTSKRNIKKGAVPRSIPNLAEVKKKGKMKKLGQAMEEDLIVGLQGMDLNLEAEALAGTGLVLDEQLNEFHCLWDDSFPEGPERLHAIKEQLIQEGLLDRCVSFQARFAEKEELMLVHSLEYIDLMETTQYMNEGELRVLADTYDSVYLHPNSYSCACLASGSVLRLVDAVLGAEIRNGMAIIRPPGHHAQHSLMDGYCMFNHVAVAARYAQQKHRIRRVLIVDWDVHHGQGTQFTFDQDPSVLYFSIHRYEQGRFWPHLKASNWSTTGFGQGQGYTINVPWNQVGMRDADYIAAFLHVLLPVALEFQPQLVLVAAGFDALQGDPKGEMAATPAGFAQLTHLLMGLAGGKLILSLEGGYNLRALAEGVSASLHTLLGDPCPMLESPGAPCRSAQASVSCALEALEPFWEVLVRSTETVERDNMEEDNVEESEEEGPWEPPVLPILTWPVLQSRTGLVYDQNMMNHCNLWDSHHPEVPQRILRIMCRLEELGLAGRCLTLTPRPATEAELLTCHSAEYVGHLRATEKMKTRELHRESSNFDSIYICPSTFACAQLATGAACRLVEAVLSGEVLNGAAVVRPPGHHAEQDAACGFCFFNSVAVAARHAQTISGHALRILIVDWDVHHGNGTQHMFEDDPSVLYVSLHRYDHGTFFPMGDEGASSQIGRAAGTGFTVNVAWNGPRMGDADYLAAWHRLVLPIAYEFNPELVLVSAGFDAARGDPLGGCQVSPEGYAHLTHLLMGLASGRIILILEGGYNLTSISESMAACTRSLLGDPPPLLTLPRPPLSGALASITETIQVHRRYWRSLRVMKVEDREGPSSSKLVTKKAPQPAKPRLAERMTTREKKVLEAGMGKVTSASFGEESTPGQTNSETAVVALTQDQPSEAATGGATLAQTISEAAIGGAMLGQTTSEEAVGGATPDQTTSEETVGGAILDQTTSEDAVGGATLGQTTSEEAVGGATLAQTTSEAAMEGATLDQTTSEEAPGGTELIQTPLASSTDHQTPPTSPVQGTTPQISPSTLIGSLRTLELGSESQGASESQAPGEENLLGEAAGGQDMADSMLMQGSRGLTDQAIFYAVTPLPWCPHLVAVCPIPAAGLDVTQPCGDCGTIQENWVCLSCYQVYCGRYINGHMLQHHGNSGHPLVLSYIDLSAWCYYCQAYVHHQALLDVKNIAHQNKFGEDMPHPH

Row | IC50 (HDAC6 human recombinant) [nM] | IC50 (HDAC1) [nM] | Compound
1 | 23 | > 10000 | Cn1c(=O)n(Cc2ccc(-c3nnc(C(F)F)o3)cn2)c(=O)c2cc(-c3ccco3)ccc21 [Compound 87, 3-((5-(5-(difluoromethyl)-1,3,4-oxadiazole-2-yl)pyridine-2-yl)methyl)-6-(furan-2-yl)-1-methylquinazoline-2,4(1H,3H)-dione]
2 | 15 | > 10000 | CC1(C)C(=O)N(Cc2ccc(-c3nnc(C(F)F)o3)cn2)C(=O)c2cc(-c3ccncc3)ccc21 [Compound 110, 2-((5-(5-(difluoromethyl)-1,3,4-oxadiazole-2-yl)pyridine-2-yl)methyl)-4,4-dimethyl-7-(pyridine-4-yl)isoquinoline-1,3(2H,4H)-dione]
3 | 54 | > 10000 | Cn1c(=O)n(Cc2ccc(-c3nnc(C(F)F)o3)cn2)c(=O)c2cc(-c3ccccc3F)ccc21 [Compound 89, 3-((5-(5-(difluoromethyl)-1,3,4-oxadiazole-2-yl)pyridine-2-yl)methyl)-6-(2-fluorophenyl)-1-methylquinazoline-2,4(1H,3H)-dione]
4 | 10 | > 10000 | CC1(C)C(=O)N(Cc2ccc(-c3nnc(C(F)F)o3)cn2)C(=O)c2ccc(-c3ccncc3)cc21 [Compound 105, 2-((5-(5-(difluoromethyl)-1,3,4-oxadiazole-2-yl)pyridine-2-yl)methyl)-4,4-dimethyl-6-(pyridine-4-yl)isoquinoline-1,3(2H,4H)-dione]
5 | 47 | > 10000 | Cn1c(=O)n(Cc2ccc(-c3nnc(C(F)F)o3)cn2)c(=O)c2ccc(-c3ccco3)cc21 [Compound 98, 3-((5-(5-(difluoromethyl)-1,3,4-oxadiazole-2-yl)pyridine-2-yl)methyl)-7-(furan-2-yl)-1-methylquinazoline-2,4(1H,3H)-dione]
6 | 185 | > 10000 | CCN1CC=C(c2ccc3c(c2)C(C)(C)C(=O)N(Cc2ncc(-c4nnc(C(F)F)o4)cn2)C3=O)CC1 [Compound 155, 2-((5-(5-(difluoromethyl)-1,3,4-oxadiazole-2-yl)pyrimidine-2-yl)methyl)-6-(1-ethyl-1,2,3,6-tetrahydropyridine-4-yl)-4,4-dimethylisoquinoline-1,3(2H,4H)-dione]
7 | 32 | > 10000 | O=C1c2ccccc2C2(CCC2)C(=O)N1Cc1ccc(-c2nnc(C(F)F)o2)cn1 [Compound 4, 2′-((5-(5-(difluoromethyl)-1,3,4-oxadiazole-2-yl)pyridine-2-yl)methyl)-1′H-spiro[cyclobutane-1,4′-isoquinoline]-1′,3′(2′H)-dione]
8 | 27 | > 10000 | CC(=O)N1CCN(c2ccc3c(c2)C(C)(C)C(=O)N(Cc2ccc(-c4nnc(C(F)F)o4)cn2)C3=O)CC1 [Compound 34, 6-(4-acetylpiperazine-1-yl)-2-((5-(5-(difluoromethyl)-1,3,4-oxadiazole-2-yl)pyridine-2-yl)methyl)-4,4-dimethylisoquinoline-1,3(2H,4H)-dione]
9 | 143 | > 10000 | Cc1ccc(-c2cccc3c2C(=O)N(Cc2ccc(-c4nnc(C(F)F)o4)cn2)C(=O)C3(C)C)o1 [Compound 93, 2-((5-(5-(difluoromethyl)-1,3,4-oxadiazole-2-yl)pyridine-2-yl)methyl)-4,4-dimethyl-8-(5-methylfuran-2-yl)isoquinoline-1,3(2H,4H)-dione]
10 | 88 | > 10000 | Cc1noc(C)c1-c1cccc2c1C(=O)N(Cc1ccc(-c3nnc(C(F)F)o3)cn1)C(=O)C2(C)C [Compound 96, 2-((5-(5-(difluoromethyl)-1,3,4-oxadiazole-2-yl)pyridine-2-yl)methyl)-8-(3,5-dimethylisooxazole-4-yl)-4,4-dimethylisoquinoline-1,3(2H,4H)-dione]
11 | 25 | > 10000 | CN(C)[C@@H]1CCN(c2ccc3c(c2)C(C)(C)C(=O)N(Cc2ccc(-c4nnc(C(F)F)o4)cn2)C3=O)C1 [Compound 32, (R)-2-((5-(5-(difluoromethyl)-1,3,4-oxadiazole-2-yl)pyridine-2-yl)methyl)-6-(3-(dimethylamino)pyrrolidine-1-yl)-4,4-dimethylisoquinoline-1,3(2H,4H)-dione]
12 | 56 | > 10000 | CCN1CCC(c2ccc3c(c2)C(C)(C)C(=O)N(Cc2ncc(-c4nnc(C(F)F)o4)cn2)C3=O)CC1 [Compound 156, 2-((5-(5-(difluoromethyl)-1,3,4-oxadiazole-2-yl)pyrimidine-2-yl)methyl)-6-(1-ethylpiperidine-4-yl)-4,4-dimethylisoquinoline-1,3(2H,4H)-dione]
13 | 20 | > 10000 | CC1(C)C(=O)N(Cc2ccc(-c3nnc(C(F)F)o3)cn2)C(=O)c2cc(C3CCN(C4COC4)CC3)ccc21 [Compound 55, 2-((5-(5-(difluoromethyl)-1,3,4-oxadiazole-2-yl)pyridine-2-yl)methyl)-4,4-dimethyl-7-(1-(oxetan-3-yl)piperidine-4-yl)isoquinoline-1,3(2H,4H)-dione]
14 | 17 | > 10000 | CC1(C)C(=O)N(Cc2ccc(-c3nnc(C(F)F)o3)cn2)C(=O)c2cc(-c3cccnc3)ccc21 [Compound 111, 2-((5-(5-(difluoromethyl)-1,3,4-oxadiazole-2-yl)pyridine-2-yl)methyl)-4,4-dimethyl-7-(pyridine-3-yl)isoquinoline-1,3(2H,4H)-dione]
15 | 52 | > 10000 | CC1(C)C(=O)N(Cc2ccc(-c3nnc(C(F)F)o3)cn2)C(=O)c2ccc(N3CCN(c4ncccn4)CC3)cc21 [Compound 50, 2-((5-(5-(difluoromethyl)-1,3,4-oxadiazole-2-yl)pyridine-2-yl)methyl)-4,4-dimethyl-6-(4-(pyrimidine-2-yl)piperazine-1-yl)isoquinoline-1,3(2H,4H)-dione]
16 | 57 | > 10000 | O=C1c2ccccc2C(=O)N1Cc1ccc(-c2nnc(C(F)F)o2)cn1 [Compound 1, 2-((5-(5-(difluoromethyl)-1,3,4-oxadiazole-2-yl)pyridine-2-yl)methyl)isoindoline-1,3-dione]
17 | 273 | > 10000 | O=c1c2ccccc2n(CCn2cccn2)c(=O)n1Cc1ccc(-c2nnc(C(F)F)o2)cn1 [Compound 21, 1-(2-(1H-pyrazole-1-yl)ethyl)-3-((5-(5-(difluoromethyl)-1,3,4-oxadiazole-2-yl)pyridine-2-yl)methyl)quinazoline-2,4(1H,3H)-dione]
18 | 62 | > 10000 | CC(C)CN1CCN(c2ccc3c(c2)C(=O)N(Cc2ccc(-c4nnc(C(F)F)o4)cn2)C(=O)C3(C)C)CC1 [Compound 131, 2-((5-(5-(difluoromethyl)-1,3,4-oxadiazole-2-yl)pyridine-2-yl)methyl)-7-(4-isobutylpiperazine-1-yl)-4,4-dimethylisoquinoline-1,3(2H,4H)-dione]
19 | 22 | > 10000 | CC(C)N1CCN(c2ccc3c(c2)C(C)(C)C(=O)N(Cc2ccc(-c4nnc(C(F)F)o4)cn2)C3=O)CC1 [Compound 26, 2-((5-(5-(difluoromethyl)-1,3,4-oxadiazole-2-yl)pyridine-2-yl)methyl)-6-(4-isopropylpiperazine-1-yl)-4,4-dimethylisoquinoline-1,3(2H,4H)-dione]

Row | Compound | IC50 (HDAC6 human recombinant) [nM] | IC50 (HDAC1) [nM]
20 | CN(C)CCn1c(=O)n(Cc2ccc(-c3nnc(C(F)F)o3)cn2)c(=O)c2ccccc21 [Compound 22, 3-((5-(5-(difluoromethyl)-1,3,4-oxadiazole-2-yl)pyridine-2-yl)methyl)-1-(2-(dimethylamino)ethyl)quinazoline-2,4(1H,3H)-dione] | 210 | > 10000
